In BindingDB's records for patent US11759530 (City of Hope, 2023):

Columns and labels:
Experiment in all cases: No assay
PIM2 = PIM2 (Homo sapiens, UniProt Q9P1W9)
[1] = target: Mitogen-activated protein kinase 14 (Homo sapiens, UniProt Q16539)
[2] = target: Mitogen-activated protein kinase 11 (Homo sapiens, UniProt Q15759)
Sequence of Mitogen-activated protein kinase 11 (Q15759 whole entry): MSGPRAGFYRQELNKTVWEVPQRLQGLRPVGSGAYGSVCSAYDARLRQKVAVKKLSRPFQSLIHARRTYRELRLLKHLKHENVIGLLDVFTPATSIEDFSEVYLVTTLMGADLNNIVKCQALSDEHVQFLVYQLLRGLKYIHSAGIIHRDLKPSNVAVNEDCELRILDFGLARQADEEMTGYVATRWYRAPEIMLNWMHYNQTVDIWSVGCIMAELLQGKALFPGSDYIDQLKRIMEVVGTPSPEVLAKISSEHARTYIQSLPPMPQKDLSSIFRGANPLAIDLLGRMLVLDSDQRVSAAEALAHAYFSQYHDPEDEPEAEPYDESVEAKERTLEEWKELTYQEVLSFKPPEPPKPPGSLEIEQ

Sequence of Mitogen-activated protein kinase 14 (Q16539 whole entry): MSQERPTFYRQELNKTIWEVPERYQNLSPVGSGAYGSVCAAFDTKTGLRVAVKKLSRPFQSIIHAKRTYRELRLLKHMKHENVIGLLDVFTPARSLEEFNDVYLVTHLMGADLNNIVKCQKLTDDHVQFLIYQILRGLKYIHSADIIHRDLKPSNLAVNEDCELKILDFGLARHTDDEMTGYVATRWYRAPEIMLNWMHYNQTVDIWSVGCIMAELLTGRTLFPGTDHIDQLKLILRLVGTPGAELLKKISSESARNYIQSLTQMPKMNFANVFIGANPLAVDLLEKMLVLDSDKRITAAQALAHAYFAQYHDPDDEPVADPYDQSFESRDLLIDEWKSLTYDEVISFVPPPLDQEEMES
Sequence of PIM2 (Q9P1W9 whole entry): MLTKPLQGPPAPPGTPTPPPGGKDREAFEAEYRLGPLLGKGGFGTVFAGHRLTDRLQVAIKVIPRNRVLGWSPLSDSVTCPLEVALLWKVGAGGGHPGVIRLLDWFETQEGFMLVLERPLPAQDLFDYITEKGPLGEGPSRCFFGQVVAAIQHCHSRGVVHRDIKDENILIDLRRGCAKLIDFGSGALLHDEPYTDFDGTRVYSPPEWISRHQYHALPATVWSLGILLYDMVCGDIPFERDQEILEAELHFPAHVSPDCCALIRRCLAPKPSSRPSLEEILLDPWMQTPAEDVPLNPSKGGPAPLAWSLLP

Row | Structure (SMILES) | IC50 (PIM2) | IC50 [1] | IC50 [2]
1 | O=c1c(O)c(-c2ccc(O)c(O)c2)oc2cc(O)c(O)c(O)c12 [US11759530, Compound Table1.8] | 3.45 µM | – | –
2 | NC(=O)c1ccc(-c2nc(-c3ccc4c(c3)OCCO4)c(-c3ccccn3)[nH]2)cc1 [US11759530, Compound Table1.3] | – | 12000 µM | –
3 | O=S(=O)(c1c(O)c(Cl)cc(Cl)c1Cl)c1c(O)c(Cl)cc(Cl)c1Cl [HL-7] | – | 0.13 µM | 0.55 µM
